Results from US11046647B2, “Activators of the unfolded protein response” (The Board of Trustees of the University of Illinois, priority 2018, dated 2021).

Experiments:
T47D, TYS and TDG cells = assay: MTS proliferation assay (4 days), T47D, TYS and TDG; type: cell-based, human
Description: FIG. 30 compares the ability of BHPI and test compounds to inhibit proliferation of T47D, TYS and TDG cells. T47D cells were in medium containing 10 FBS (which contains estrogen), TYS-4 and TDG-1 cells were in medium containing 10% cd-FBS (estrogen depleted). Cells are plated at 2,000 cells/well in 96 well plates. After 24 hours in medium containing FBS or charcoal-dextran treated FBS (depleted of endogenous estrogens), the indicated concentration of each compound (in DMSO at 1/1000th of the volume of medium) was added. After 2 days the medium was changed, and the compounds were added again. After 2 additional days (4 days total) MTS assays are used to evaluate cell proliferation. (n=6 ±S.E.M.).

T47D cells [1] = settings: 100, 500 and 1,000 nM; 24 hours; n=1
Description: One such change is loss of plasma membrane polarity. This is monitored using Annexin V. Dying cells also take up the dye propidium iodide. Propidium iodide (PI) fluoresces when it is intercalated into DNA. These assays monitor cells at specific stages of cell death.
FLOW CYTOMETRY (FITC) ASSAYS: Cells were seeded in 12-well plates, 75,000 cells/well, and allowed to adhere overnight. The next day, the indicated concentrations of raptinal (positive control), (−)-105, (±)-105, and (+)-105 were added and allowed to incubate at 37° C. for 24 hours (Final Volume: 1 ml, 0.1% DMSO). After incubation, cells were harvested and resuspended in 350 μl of cold Annexin binding buffer (10 mM HEPES, 140 mM NaCl, 2.5 mM CaCl2, pH 7.4) premixed with Annexin V-FITC and PI dyes. Samples were analyzed on a BD Biosciences LSRII flow cytometer, and data analysis was performed using FSC Express Version 5-6. Cell death was assessed relative to a DMSO treated control.
T47D, human breast cancer cells were plated at 75,000 cells/well. The next day, DMSO vehicle, 10 μM raptinal (control for 100% cell death), or 0, 50, 100 500 and 1,000 nM of BHPI or (±)-105, or 1,000 nM ICI/fulvestrant or 1,000 nM OHT was added. After 24 hours viable cells were determined by FACS using annexin V-FITC and propidium iodide dyes. (n=3 independent experiments ±SEM).
75,000 ERα positive T47D, human breast cancer cells, were plated/well. The next day, DMSO vehicle, 10 μM raptinal (control for 100% cell death), or 100 500 and 1,000 nM of (+)-105, or (−)-105 was added. After 24 hours viable cells were determined by FACS using annexin V-FITC and propidium iodide dyes. (n=1).

[2] = test system: intracellular ATP levels in TYS-Luc cells; assay: Intracellular ATP levels, TYS-Luc cells; type: cell-based, human; settings: 1,000 nM
Description: TYS-Luc cells were maintained DMSO vehicle (Veh), 1,000 nM BHPI, 1,000 nM (−)-105 with and without 10,000 nM thapsigargin (THG) for the indicated times. ATP levels were determines using a kit and relative ATP levels were from a standard curve. […] (n=3±SEM).

MCF-7 tumors = assay: MCF-7 orthotopic tumor model; type: in vivo, mouse
Description: FIG. 39. SERK-F6 eradicates wild-type ERα tumors via hyperactivation of aUPR. a, MCF-7 orthotopic tumors were established in Nu/J ovariectomized mice supplemented with a 60 day E2 pellet (0.36 mg) and grown to ˜400 mm^3 (28 days to establish), randomized, then treated with vehicle daily (n=3), vehicle weekly (n=3), fulv. weekly (5 mg/mouse, s.c., n=6), SERK-F6 daily (10 or 40 mg/kg p.o.). Vehicle arms were averaged. p values: *: p≤0.05, **: p≤0.01, ***: p≤0.001, ****: p≤0.0001. Tumor images were taken at the end of the study (day 21) and are representative of all tumors (n=6). b-e, MCF-7 cells were orthotopically bi-laterally grafted and tumors were grown until total tumor burden was ˜400 mm^3 prior to daily treatment with vehicle or SERK-F6 (40 mg/kg p.o.). Mice (n=5 per arm) were sacrificed after 3 days (b,c) and 7 days (d,e) and tumors harvested. […] Vinculin (Vin) was used as a loading control. […] Error bars represent S.E.M.
To probe the efficacy of SERK-F6 for killing ERα positive tumors, large MCF-7 tumors were grown and then intervened with therapy. […] The mice were then sacrificed prior to complete tumor eradication.

T47D cells [3] = assay: 24-hour crystal violet assay; type: cell-based, human
Description: FIG. 36. Discovery of SERK-F6 (also known as, C(−)-105, (−)-105, (R)-105, (−)-1, or (R)-1), a compound that kills ERα-positive cancer cells, a, Chemical structures of BHPI and racemic compound 1 (i.e. (±)-1), and their cytotoxic activity on T47D breast cancer cells after 24-hour incubations with concentrations as indicated in nM. Cells were stained with annexin V-FITC and PI dyes prior to analysis via flow cytometry. […] Cells were incubated with SERK-F6 or positive control, Raptinal, for 24 hours and then stained with annexin V-FITC and PI dyes and analyzed via flow cytometry. Error bars represent S.E.M of 3 independent replicates. c, IC50 values of SERK-F6 after 24-hour incubation against a panel of cancer cell lines grouped by their reported ERα status. Cell viability was measured by Alamar blue fluorescence and set relative to a vehicle control and a quantitative dead control treated with Raptinal. Error bars represent S.E.M of 3 independent experiments. d, Crystal violet staining of T47D cells after 24-hour incubations with compounds and concentrations as indicated. Image is representative of 2 independent experiments. e,f, Long-term cell culture experiment with T47D, TDG, and TYS cells. Cells were incubated for 2 weeks with compounds (1 μM), followed by compound washout, and cells were cultured for 2 months. Cell number was determined by MTS.

SMILES	effectiveness in killing compared with BHPI (T47D, TYS and TDG cells)	activity of enantiomers (cell death) (T47D cells [1])	intracellular ATP levels [2]	UPR markers in tumors (western blot) (MCF-7 tumors; 40 mg/kg p.o., 3 and 7 days)	murine weight during the study (MCF-7 tumors; daily treatment)	tumor response (MCF-7 tumors; large established MCF-7 tumors, SERK-F6 10 or 40 mg/kg p.o. daily, fulv. 5 mg/mouse s.c. weekly)	cell killing (T47D cells [3])
O=C1Nc2c(C(F)(F)F)cccc2C1(c1ccc(O)cc1)c1ccc(OC(F)(F)F)cc1 (racemic) [(±)-105, 3-(4-hydroxyphenyl)-3-(4-(trifluoromethoxy)phenyl)-7-(trifluoromethyl)indolin-2-one]	more effective than BHPI	–	–	–	–	–	–
O=C1Nc2c(C(F)(F)F)cccc2C1(c1ccc(O)cc1)c1ccc(OC(F)(F)F)cc1 (single isomer, unassigned; (-)) [(−)-105, 3-(4-hydroxyphenyl)-3-(4-(trifluoromethoxy)phenyl)-7-(trifluoromethyl)indolin-2-one]	–	active	reduces intracellular ATP levels	increases in P-PERK and P-eiF2alpha levels	did not lead to any change in murine weight	dramatic tumor regressions	quantitatively kills
